The subject of one series is Wistar rats. The series can be described thus: Antiphlogistic activity, carrageenin paw edema. In kind it is in vivo, rat (Wistar). Particulars: Rattus norvegicus, po, 3 h. The method, then: Each test compound of this invention was administered orally to Wistar rats of about 300 g body weight, and 30 minutes later 0.05 ml of a 1% carrageenin solution was injected into a paw of each rat.
In general terms: The carrageenan paw model is a standard test of acute inflammation.

Series [1] concerns SD male rats. Kind of series: Antipyretic activity, dry yeast-induced fever. Format: in vivo, rat (SD male). Particulars: Rattus norvegicus, po, p.o. The method, then: A 2% suspension of dry yeast was injected subcutaneously to SD male rats of 250 to 300 g body weight in an amount of 2 ml/animal to cause a fever, and 4 hours later, the compounds of this invention and control drugs were administered orally. The rectal temperature of each rat was measured periodically, and the dosage of each compound required to reduce the fever by more than 1° C. at the peak of its activity was determined.

Another series can be described thus: Acute toxicity in rats. The arrangement: species or system rat (SD male). Particulars: rat, in vivo, po. The method, then:
(§1) Ten mice were used for each dose and morality was determined for 3 days after administration of each test compound of the invention. In the case of the rats, 5 rats were used for each dose and morality was determined 7 days after administrations.

A short description of another series: Acute toxicity in mice. Particulars: mouse, in vivo, po. The arrangement: species or system mouse (ddy male). As to the method: as §1
The subject of the next series is ddy-strain male mice. Kind of series: Analgesic activity, acetic acid writhing method. Format: in vivo, mouse (ddy-strain male). Particulars: p.o.; for Analgesic activity ED50: acetic acid writhing. The method, then:
(a) Acetic acid writhing method^1
A 0.7% acetic acid solution was injected intraperitoneally to ddy-strain male mice (20 to 25 g) in an amount of 0.1 ml per 10 g mouse body weight to cause a writhing syndrome typified by stretching of the hind legs. The inhibitory action of each test compound against said symptom was observed as a measure of the analgesic activity of the compound. In the tests, each of the compounds of this invention and each of the control drugs listed below were administered orally to each test animal, and 50 minutes later said acetic acid solution was injected in the manner described above and the total number of typical writhes was determined over a period of 15 minutes.
On the technique in general: In writhing tests, fewer writhes than in controls are read as antinociception.

The next series relates to ddy male mice. Particulars: p.o., given in Japan National Formulary, 6th Ed. (1982), 4320 min, cited from earlier work.
The test system of series [2] is SD male rats. The series can be described thus: Analgesic activity, bradykinin-induced pain response. In kind it is in vivo, rat (SD male). Particulars: p.o.; for Safety margin (LD50 /ED50): Table 2, rats; for Analgesic activity ED50 / Saftety margin (LD50 /ED50): Table 4, rats. As to the method:
(b) Bradykinin-induced pain response^3,4
A polyethylene tube was inserted into a common right carotid artery of SD male rats (250 to 350 g) and 0.5 microngram per 0.1 ml of bradykinin was injected into the artery through said tube. Response induced by bradykinin such as flexin of the right forelimb, dextro-rotation of the head and rearing were considered as being indices of pain response, and the analgesic action of each test compound was determined by observing its inhibition of responses such symptoms.

For series [3], the system named is SD male rats. Particulars: p.o., given in Japan National Formulary, 6th Ed. (1982), 10080 min, cited from earlier work.
The mark [4] stands for this setting: rats, read-out: effective dose ED for reducing the fever by more than 1° C. at the peak of its activity.
Setting [5] is: Table 5, rats, read-out: ED (effective dose for reducing the fever by more than 1° C. when the compound action is at the peak).

Like-named read-outs stand apart in the source and are kept apart here.

For the compound `Cn1cnc2c1c(=O)n(CCCN1CCN(c3ccc(Cl)c(Cl)c3)CC1)c(=O)n2C` [Compound A', 1-(3-(4-(3,4-dichlorophenyl)piperazinyl-(1))-n-propyl)theobromine], in the series on Wistar rats (Table 7, rats), the ED30 worked out at 25 mg/kg. In the series on SD male rats [1] (setting [4]), the ED (fever reduced by more than 1 degC) was 40 mg/kg.
With `Cn1c(=O)c2c(ncn2CCCCN2CCN(c3ccc(F)cc3)CC2)n(C)c1=O` [Compound A], the LD50 at 168 h in “Acute toxicity in rats” (Table 2, rats) lay within 353 to 500 mg/kg. The compound also returned an ED30 with Wistar rats (Table 6, rats) of 10 mg/kg. Moreover, the ED (fever reduced by more than 1 degC) in the series on SD male rats [1] (setting [5]) is 10 mg/kg. In “Acute toxicity in mice” (Table 1, mice), the LD50 at 72 h amounted to 344 mg/kg.
As for `Cc1cccc(N2CCN(CCn3c(=O)c4c(ncn4C)n(C)c3=O)CC2)c1C` [Compound B', 1-(2-(4-(2,3-dimethylphenyl)piperazinyl-(1))-ethyl)theobromine.2HCl], the LD50 at 168 h in “Acute toxicity in rats” (Table 4, rats) was at least 2000 mg/kg. In addition, the LD50 at 72 h in “Acute toxicity in mice” (Table 3, mice) was 600 mg/kg.
`Cn1c(=O)c2c(ncn2CCCCCN2CCN(c3ccc(Cl)cc3)CC2)n(C)c1=O` [Compound B] showed an LD50 at 168 h in “Acute toxicity in rats” (Table 2, rats) of 353 to 500 mg/kg. Further, in the series on Wistar rats (Table 6, rats), the ED30 worked out at 50 mg/kg. Moreover, in the series with SD male rats [1] (setting [5]), the ED (fever reduced by more than 1 degC) came to 40 mg/kg. Further, in “Acute toxicity in mice” (Table 1, mice), the LD50 at 72 h came out at 704 mg/kg.
For the compound `Cn1cnc2c1c(=O)n(CCCN1CCN(c3ccccc3Cl)CC1)c(=O)n2C` [Compound C', 1-(3-(4-o-chlorophenylpiperazinyl-(1))-n-propyl)theobromine.2HCl], the ED30 in the series on Wistar rats (Table 7, rats) worked out at 10 mg/kg. Besides, the LD50 at 72 h in “Acute toxicity in mice” (Table 3, mice) was 200 mg/kg.
Turning to `Cc1ccc(N2CCN(CCCn3cnc4c3c(=O)n(C)c(=O)n4C)CC2)cc1C` [Compound C], the LD50 at 168 h in “Acute toxicity in rats” (Table 2, rats) is 770 mg/kg. Moreover, the ED (fever reduced by more than 1 degC) with SD male rats [1] (setting [5]) was 10 mg/kg. For the same compound, the LD50 at 72 h in “Acute toxicity in mice” (Table 1, mice) is at least 800 mg/kg.
On to `COc1ccccc1N1CCN(CCCCn2c(=O)c3c(ncn3C)n(C)c2=O)CC1` [Compound D', 1-(4-(4-o-methoxyphenylpiperazinyl-(1))-n-butyl)theobromine.2HCl], for which, in the series “Acute toxicity in mice” (Table 3, mice), the LD50 at 72 h lay within 400 to 800 mg/kg.
`Cn1c(=O)c2c(ncn2CCCCN2CCN(c3ccc(Cl)cc3)CC2)n(C)c1=O` [Compound D] returned an LD50 at 168 h in the series “Acute toxicity in rats” (Table 2, rats) of 505 mg/kg. The same compound displayed an ED30 in the series with Wistar rats (Table 6, rats) of 25 mg/kg. In the series on SD male rats [1] (setting [5]), the ED (fever reduced by more than 1 degC) was 40 mg/kg. For the same compound, the LD50 at 72 h in the series “Acute toxicity in mice” (Table 1, mice) came to 575 mg/kg.
Turning to `Cn1cnc2c1c(=O)n(CCCCN1CCN(c3ccc(F)cc3)CC1)c(=O)n2C` [Compound E', 1-(4-(4-p-fluoropenylpiperazinyl-(1))-n-butyl)theobromine.2HCl], the ED30 in the series with Wistar rats (Table 7, rats) turned out to be 25 mg/kg. The same compound showed an LD50 at 72 h in “Acute toxicity in mice” (Table 3, mice) of 200 mg/kg.
Consider `Cn1cnc2c1c(=O)n(CCCCN1CCN(c3ccc(Cl)c(Cl)c3)CC1)c(=O)n2C` [Compound F', 1-(4-(4-(3,4-dichlorophenyl)piperazinyl-(1))-n-butyl)theobromine.2HCl], for which the LD50 at 72 h in the series “Acute toxicity in mice” (Table 3, mice) lay within 400 to 800 mg/kg.
In “Acute toxicity in rats” (Table 2, rats), `Cn1c(=O)c2c(ncn2CCCCCN2CCN(c3cccc(C(F)(F)F)c3)CC2)n(C)c1=O` [Compound F] had an LD50 at 168 h of 660 mg/kg. Further, the ED30 in the series with Wistar rats (Table 6, rats) is 25 mg/kg. For the same compound, the ED (fever reduced by more than 1 degC) in the series on SD male rats [1] (setting [5]) was 10 mg/kg. This compound also displayed an LD50 at 72 h in the series “Acute toxicity in mice” (Table 1, mice) of at least 800 mg/kg.
In the series on Wistar rats (Table 7, rats), `Cc1cccc(N2CCN(CCCCCn3c(=O)c4c(ncn4C)n(C)c3=O)CC2)c1` [Compound G', 1-(5-(4-m-methylphenylpiperazinyl-(1))-n-pentyl)theobromine.2HCl] gave an ED30 of 25 mg/kg. The “Safety margin (LD50 /ED50)” value with ddy-strain male mice (Table 3, mice) stood at 22. In the series “Acute toxicity in mice” (Table 3, mice), the LD50 at 72 h is 300 mg/kg.
As for `COc1cc(C)nc(-n2nc(C)cc2OC)n1` [Control drug I, 4-methoxy-2-(5-methoxy-3-methylpyrazol-1-yl)-6-methylpyrimidine], the “Acute toxicity LD50” value in the series on ddy male mice (Table 1, mice) is listed as 1,022 mg/kg; with ddy male mice (Table 3, mice), 1022 mg/kg; in the series with SD male rats [3] (Table 2, rats), 526 mg/kg; with SD male rats [3] (Table 4, rats) it was 526 mg/kg. For the same compound, the “Safety margin (LD50 /ED50)” value in the series on SD male rats [2] was at most 3; in the series with ddy-strain male mice (Table 1, mice), 4.3; in the series with ddy-strain male mice (Table 3, mice) it was 4.3. Besides, the “Analgesic activity ED50” value in the series on SD male rats [2] is reported as at least 160 mg/kg; in the series on ddy-strain male mice (Table 3, mice), 240 mg/kg. Also, the “Saftety margin (LD50 /ED50)” value in the series with SD male rats [2] is recorded as at most 3. The ED (fever reduced by more than 1 degC) in the series on SD male rats [1] (setting [4]) and in the series on SD male rats [1] (setting [5]) was 40 mg/kg in each case.
With `O=C(Cn1c(=O)sc2ccc(Cl)cc21)N1CCN(CCO)CC1` [Control drug II, 4-((5-chloro-2-oxo-3(2H)-benzothiazolyl)acetyl)-1-piperazineethanol], the “Acute toxicity LD50” value in the series on ddy male mice (Table 1, mice) is recorded as 664 mg/kg; with ddy male mice (Table 3, mice) it was 564 mg/kg. In addition, the “Safety margin (LD50 /ED50)” value in the series with SD male rats [2] is listed as at most 23; in the series on ddy-strain male mice (Table 1, mice) it was 8.5; with ddy-strain male mice (Table 3, mice), 8.5. Further, the “Analgesic activity ED50” value in the series on SD male rats [2] was at least 160 mg/kg; with ddy-strain male mice (Table 3, mice), 66 mg/kg. In addition, in the series on SD male rats [2], the “Saftety margin (LD50 /ED50)” value was at most 23. In addition, the ED (fever reduced by more than 1 degC) in the series on SD male rats [1] (setting [4]) and in the series with SD male rats [1] (setting [5]) was 40 mg/kg in each case.
On to `OC(CN1CCCCC1)c1cc(-c2ccccc2)on1` (centres unmarked) [Control drug III, 3-(1-hydroxy-2-piperadinoethyl)-5-phenyl-isoxazole], for which the “Acute toxicity LD50” value with ddy male mice (Table 1, mice) is listed as 612 mg/kg; in the series on ddy male mice (Table 3, mice) it was 612 mg/kg; in the series on SD male rats [3] (Table 2, rats) it was 1,978 mg/kg; in the series with SD male rats [3] (Table 4, rats), 1,978 mg/kg. Besides, the “Safety margin (LD50 /ED50)” value is 12 in the series with SD male rats [2]; 5.1 in the series on ddy-strain male mice (Table 1, mice); 5.1 in the series on ddy-strain male mice (Table 3, mice). Further, the “Saftety margin (LD50 /ED50)” value in the series on SD male rats [2] turned out to be 12. For the same compound, the ED (fever reduced by more than 1 degC) in the series on SD male rats [1] (setting [4]) and in the series on SD male rats [1] (setting [5]) was 160 mg/kg in each case. Besides, in the series on ddy-strain male mice (Table 3, mice), the “Analgesic activity ED50” value is on record as 120 mg/kg.

Broadly, the LD50 is the dose at which mortality reaches 50%. Lower therefore signals greater toxicity.
